Where a SMILES comes first, the peptide text is derived from it. Bridges are numbered along the chain shown (N, C = ends). [ ]: non-standard residue; d: D form. The star is where a group is joined. hPhe(3-Cl-4-CF3) = N[C@@H](CCc1ccc(C(F)(F)F)c(Cl)c1)C(=O)O; NPrPhe(4-CF3) = CCCN[C@@H](Cc1ccc(C(F)(F)F)cc1)C(=O)O; NMeGly(cPent) = CN[C@H](C(=O)O)C1CCCC1; Pro(4,4-F2) = O=C(O)[C@@H]1CC(F)(F)CN1; NMeD = CN[C@@H](CC(=O)O)C(=O)O; NMeL = CN[C@@H](CC(C)C)C(=O)O; NMeNva = CCC[C@H](NC)C(=O)O; Azetidin(1-yl) = C1CN(*)C1; Pip = O=C(O)[C@@H]1CCCCN1; Morpholide = C1CN(*)CCO1; Ac5c = NC1(C(=O)O)CCCC1; Aze = O=C(O)[C@@H]1CCN1; Sar = CNCC(=O)O
Assays:
[1] = target: GDP-bound HRAS wild-type protein (Homo sapiens, UniProt P01112); assay: Binding to HRAS by surface plasmon resonance (SPR), Single Cycle Kinetics
[2] = target: GDP-bound NRAS wild-type protein (Homo sapiens, UniProt P01111); assay: Binding to NRAS by surface plasmon resonance (SPR), Single Cycle Kinetics
[3] = KD ratio, GDP-bound HRAS wild-type vs GDP-bound KRAS wild-type, SPR
[4] = KD ratio, GDP-bound NRAS wild-type vs GDP-bound KRAS wild-type, SPR

Chain of GDP-bound NRAS wild-type protein (P01111 whole entry): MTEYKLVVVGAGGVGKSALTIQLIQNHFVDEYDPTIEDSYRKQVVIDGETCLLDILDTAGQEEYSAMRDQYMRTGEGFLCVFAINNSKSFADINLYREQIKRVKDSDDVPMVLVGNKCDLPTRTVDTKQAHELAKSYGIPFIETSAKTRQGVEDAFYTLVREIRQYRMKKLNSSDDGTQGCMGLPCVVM
Chain of GDP-bound HRAS wild-type protein (P01112 whole entry): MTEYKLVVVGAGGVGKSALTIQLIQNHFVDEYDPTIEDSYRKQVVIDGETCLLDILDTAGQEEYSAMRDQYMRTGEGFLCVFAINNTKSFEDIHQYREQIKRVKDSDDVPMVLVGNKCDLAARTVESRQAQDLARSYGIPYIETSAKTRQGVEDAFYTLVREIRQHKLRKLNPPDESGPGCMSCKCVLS

CCO[C@@H]1C[C@H]2C(=O)NC3(CCC3)C(=O)N(C)[C@@H](C3CCCC3)C(=O)N(C)[C@H](C(=O)N3CCOCC3)CC(=O)N(C)[C@@H](Cc3ccsc3)C(=O)N[C@@H]([C@@H](C)CC)C(=O)N(C)CC(=O)N(C)[C@H]3CCCCCN(C3=O)[C@@H](Cc3ccc(F)cc3)C(=O)N(C)CC(=O)N[C@@H](CCc3cc(F)c(C(F)(F)F)c(F)c3)C(=O)N2C1 [PP1184]
HRAS/KRAS (ratio of KD value with respect to HRAS to KD value with respect to KRAS) [1, 3]: B (a compound having 3 or more and less than 10 is denoted as B) | NRAS/KRAS (ratio of KD value with respect to NRAS to KD value with respect to KRAS) [2, 4]: B (a compound having 3 or more and less than 10 is denoted as B)

CCO[C@@H]1C[C@H]2C(=O)NC3(CC(C)(C)C3)C(=O)N(C)[C@@H](C3CCCC3)C(=O)N(C)[C@H](C(=O)N(C)C)CC(=O)N(C)[C@@H](CC(F)(F)F)C(=O)N[C@@H]([C@@H](C)CC)C(=O)N(C)CC(=O)N(C)[C@H]3C/C=C\CCN(C3=O)[C@@H](Cc3ccc(C(F)(F)F)cc3)C(=O)N(C)CC(=O)N[C@@H](CCc3ccc(C(F)(F)F)c(OC)c3)C(=O)N2C1 [PP1675]
HRAS/KRAS (ratio of KD value for HRAS to KD value for KRAS) [1, 3]: B (a compound having 3 or more and less than 10 is denoted as B) | NRAS/KRAS (ratio of KD value for NRAS to KD value for KRAS) [2, 4]: A (a compound having 10 or more and less than 20 is denoted as A)

CCCN1C(=O)[C@@H]2CCN2C(=O)[C@@H]2CCCCN2C(=O)[C@H]([C@@H](C)CC)NC(=O)[C@H](CC(C)C)N(C)C(=O)C[C@@H](C(=O)N2CCOCC2)N(C)C(=O)[C@H](C2CCCC2)N(C)C(=O)C2(CCCC2)NC(=O)[C@@H]2CCCN2C(=O)[C@H](CCc2ccc(C(F)(F)F)c(Cl)c2)NC(=O)CN(C)C(=O)[C@@H]1Cc1ccc(C(F)(F)F)cc1 [PP0077] ([NMeL]I[Pip][Aze][NPrPhe(4-CF3)][Sar][hPhe(3-Cl-4-CF3)]P[Ac5c][NMeGly(cPent)][NMeD]-Morpholide; lactam N-11)
HRAS/KRAS (ratio of KD for GDP-bound HRAS wild-type to KD for KRAS) ([1]; SPR): B (a compound having 3 or more and less than 10 is denoted as B) | NRAS/KRAS (ratio of KD for GDP-bound NRAS wild-type to KD for KRAS) ([2]; SPR): C (A compound having a KD ratio of 0.1 or more and less than 3 is denoted as C)

CCC(CC)[C@@H]1NC(=O)[C@H](CC(C)C)N(C)C(=O)C[C@@H](C(=O)N2CCOCC2)N(C)C(=O)[C@H](C2CCCC2)N(C)C(=O)C2(CCCC2)NC(=O)[C@@H]2CCCN2C(=O)[C@H](CCc2cc(F)c(C(F)(F)F)c(F)c2)NC(=O)CN(C)C(=O)[C@H](Cc2ccc(C(F)(F)F)cc2)N2CCCCC[C@@H](C2=O)N(C)C(=O)CN(C)C1=O [PP0523]
HRAS/KRAS (ratio of KD value with respect to GDP-bound HRAS wild-type protein to KD value with respect to KRAS) ([1]; SPR): B (a compound having 3 or more and less than 10 is denoted as B) | NRAS/KRAS (ratio of KD value with respect to GDP-bound NRAS wild-type protein to KD value with respect to KRAS) ([2]; SPR): A (a compound having 10 or more and less than 20 is denoted as A)

CCO[C@@H]1C[C@H]2C(=O)NC3(CC(C)(C)C3)C(=O)N(C)[C@@H](C(CC)CC)C(=O)N(C)[C@H](C(=O)N(C)C)CC(=O)N(C)[C@H]3CC/C=C/c4ccc(cc4)C[C@@H](C(=O)N(C)CC(=O)N[C@@H](CCc4ccc(Cl)c(Cl)c4)C(=O)N2C1)N1CC/C=C\C[C@@H](C1=O)N(C)C(=O)CN(C)C(=O)[C@H]([C@@H](C)CC)NC3=O [PP2589]
HRAS/KRAS (ratio of KD value with respect to GDP-bound HRAS wild-type protein to KD value with respect to KRAS) ([1]; class symbols): A (a compound having 10 or more and less than 20 is denoted as A) | NRAS/KRAS (ratio of KD value with respect to GDP-bound NRAS wild-type protein to KD value with respect to KRAS) ([2]; class symbols): AA (a compound having 20 or more is denoted as AA)

CCCN1C(=O)CN(C)C(=O)CN(C)C(=O)[C@H]([C@@H](C)CC)NC(=O)[C@H](CC(C)C)N(C)C(=O)C[C@@H](C(=O)N2CCC2)N(C)C(=O)[C@H](C2CCCC2)N(C)C(=O)C2(CCCC2)NC(=O)[C@@H]2CCCN2C(=O)[C@H](CCc2ccc(C(F)(F)F)c(Cl)c2)NC(=O)CN(C)C(=O)[C@@H]1Cc1ccc(C(F)(F)F)cc1 [PP0172] ([NMeL]I[Sar][Sar][NPrPhe(4-CF3)][Sar][hPhe(3-Cl-4-CF3)]P[Ac5c][NMeGly(cPent)][NMeD]-{Azetidin(1-yl)}; lactam N-11)
HRAS/KRAS (ratio of KD for GDP-bound HRAS wild-type to KD for KRAS) ([1]; SPR): C (A compound having a KD ratio of 0.1 or more and less than 3 is denoted as C) | NRAS/KRAS (ratio of KD for GDP-bound NRAS wild-type to KD for KRAS) ([2]; SPR): B (a compound having 3 or more and less than 10 is denoted as B)

CCC[C@H]1C(=O)N[C@@H]([C@@H](C)CC)C(=O)N(C)CC(=O)N(C)CC(=O)N(CCC)[C@@H](Cc2ccc(C(F)(F)F)cc2)C(=O)N(C)CC(=O)N[C@@H](CCc2ccc(C(F)(F)F)c(Cl)c2)C(=O)N2CC(F)(F)C[C@H]2C(=O)NC2(CCCC2)C(=O)N(C)[C@@H](C2CCCC2)C(=O)N(C)[C@H](C(=O)N2CCOCC2)CC(=O)N1C [PP0201] ([NMeNva]I[Sar][Sar][NPrPhe(4-CF3)][Sar][hPhe(3-Cl-4-CF3)][Pro(4,4-F2)][Ac5c][NMeGly(cPent)][NMeD]-Morpholide; lactam N-11)
HRAS/KRAS (ratio of KD for GDP-bound HRAS wild-type to KD for KRAS) ([1]; SPR): C (A compound having a KD ratio of 0.1 or more and less than 3 is denoted as C) | NRAS/KRAS (ratio of KD for GDP-bound NRAS wild-type to KD for KRAS) ([2]; SPR): B (a compound having 3 or more and less than 10 is denoted as B)

CCO[C@@H]1C[C@H]2C(=O)NC3(CCC3)C(=O)N(C)[C@@H](C3CCCC3)C(=O)N(C)[C@H](C(=O)N(C)C)CC(=O)N(C)[C@@H](CC)C(=O)N[C@@H]([C@@H](C)CC)C(=O)N(C)CC(=O)N(C)[C@H]3CC=C(C)CN(C3=O)[C@@H](Cc3ccc(C(F)(F)F)cc3)C(=O)N(C)CC(=O)N[C@@H](CCc3cc(F)c(C(F)(F)F)c(F)c3)C(=O)N2C1 [PP0827]
HRAS/KRAS (ratio of KD value with respect to HRAS to KD value with respect to KRAS) [1, 3]: C (A compound having a KD ratio of 0.1 or more and less than 3 is denoted as C) | NRAS/KRAS (ratio of KD value with respect to NRAS to KD value with respect to KRAS) [2, 4]: C (A compound having a KD ratio of 0.1 or more and less than 3 is denoted as C)

CCC[C@H]1C(=O)N[C@@H]([C@@H](C)CC)C(=O)N(C2CC2)CC(=O)N(C)[C@H]2C/C=C\CCN(C2=O)[C@@H](Cc2ccc(C(F)(F)F)cc2)C(=O)N(C)CC(=O)N[C@@H](CCc2ccc(C(F)(F)F)c(OC)c2)C(=O)N2C[C@H](OCC)C[C@H]2C(=O)NC2(CC(C)(C)C2)C(=O)N(C)[C@@H](C2CCCC2)C(=O)N(C)[C@H](C(=O)N(C)C)CC(=O)N1C [PP2105]
HRAS/KRAS (ratio of KD value with respect to HRAS to KD value with respect to KRAS) ([1]; SPR, GDP-bound HRAS wild-type vs GDP-bound KRAS wild-type): A (a compound having 10 or more and less than 20 is denoted as A) | NRAS/KRAS (ratio of KD value with respect to NRAS to KD value with respect to KRAS) ([2]; SPR, GDP-bound NRAS wild-type vs GDP-bound KRAS wild-type): A (a compound having 10 or more and less than 20 is denoted as A)

CCO[C@@H]1C[C@H]2C(=O)NC3(CCC3)C(=O)N(C)[C@@H](C3CCCC3)C(=O)N(C)[C@H](C(=O)N3CCOCC3)CC(=O)N(C)[C@@H](CC)C(=O)N[C@@H]([C@@H](C)CC)C(=O)N(C)CC(=O)N(C)[C@H]3C[C@@H](C)CCN(C3=O)[C@@H](Cc3ccc(C(F)(F)F)cc3)C(=O)N(C)CC(=O)N[C@@H](CCc3cc(F)c(C(F)(F)F)c(F)c3)C(=O)N2C1 [PP1027]
HRAS/KRAS (ratio of KD value with respect to HRAS to KD value with respect to KRAS) [1, 3]: B (a compound having 3 or more and less than 10 is denoted as B) | NRAS/KRAS (ratio of KD value with respect to NRAS to KD value with respect to KRAS) [2, 4]: C (A compound having a KD ratio of 0.1 or more and less than 3 is denoted as C)

CCO[C@@H]1C[C@H]2C(=O)NC3(CC(C)(C)C3)C(=O)N(C)[C@@H](C(CC)CC)C(=O)N(C)[C@H](C(=O)N3CCCCC3)CC(=O)N(C)[C@@H](COC)C(=O)N[C@@H]([C@@H](C)CC)C(=O)N(C)CC(=O)N(C)[C@H]3C/C=C\CCN(C3=O)[C@@H](Cc3ccc(C(F)(F)F)cc3)C(=O)N(C)CC(=O)N[C@@H](CCc3ccc(Cl)c(Cl)c3)C(=O)N2C1 [PP2610]
HRAS/KRAS (ratio of KD value with respect to GDP-bound HRAS wild-type protein to KD value with respect to KRAS) ([1]; class symbols): A (a compound having 10 or more and less than 20 is denoted as A) | NRAS/KRAS (ratio of KD value with respect to GDP-bound NRAS wild-type protein to KD value with respect to KRAS) ([2]; class symbols): AA (a compound having 20 or more is denoted as AA)

Source: patent US20250230193A1, “CYCLIC COMPOUND HAVING SELECTIVE KRAS INHIBITORY EFFECT ON HRAS AND NRAS” (CHUGAI SEIYAKU KABUSHIKI KAISHA, priority 2022, published 2025)
